Laboratory results: patent US7381731B2, “Pharmaceutical composition comprising citrulline” (Angiogenix, Inc., priority 1994, dated 2008)

Assays:
[1] = tested on: y^+ transporter; experiment: y+ transport of [3H]-LA in cells exposed to NOS agonists or NO donors, sodium-free uptake buffer; type: cell-based, bovine; conditions: for maximum inhibition of y+ transport: FIG. 16; for inhibition of L-arginine transport: data not shown; for increase of [3H]-LA uptake: Ach 5 μM; for increase of y+ transport of L-arginine / increase of y+ transporter activity from control: SP 1 μM
Description: Effect of NOS agonists on cellular uptake of LA.
Effect of NO donors on cellular uptake of LA.
In order to confirm whether the reduction in cellular uptake of [^3H]-LA was due to NO released from SNAP, experiments were performed using another NO donor, DPTA-NONOate. Unlike SNAP, which donates large amounts of NO over a short time period (t1/2˜10 minutes), the use of DPTA-NONOate allows for a slower (t1/2˜5 hours), more sustained release of NO that is constant over time.

[2] = tested on: bovine aortic endothelial cells (BAEC); experiment: Superoxide anion (O2*—) formation in BAEC; type: cell-based; conditions: for increase of O2*— production above basal levels: 1 μM; for increase of O2*— production above basal levels / prevention of basal production of O2*—: 60 minute period; for inhibition of O2*— production induced by A-23187: A-23187 1 μM; for inhibition of O2*— production induced by A-23187 / reduction of O2*— induced by SP: concurrent treatment 5×10^−4M; for reduction of O2*— induced by SP: SP 1 μM; for prevention of basal production of O2*—: supplementation 5×10^−4M
Description: Cellular superoxide anion formation—Effect of NOS agonists on cellular superoxide anion formation.

[3] = tested on: cultured bovine aortic EC; experiment: DOX as NOS agonist: NO production by oxyhemoglobin/methemoglobin conversion and NO sensitive electrode; type: cell-based
Description: In fact, a wide variety of vasoactive agents (e.g., bradykinin, muscarinic agonists and growth factors) which increase tPA levels are also agonists of nitric oxide synthase (NOS). DOX activity as a NOS agonist was investigated in cultured bovine aortic EC using two methods to assess NO production: conversion of oxyhemoglobin to methamoglobin and a NO sensitive electrode.
For all experiments described herein, human coronary artery endothelial cells (passage 3-5-Clonetics) were maintained at 37°, […] and 5% CO2 in Medium 199 (M199) supplemented with 5% fetal bovine serum (FBS, Hyclone), 10% iron supplemented FBS (Hyclone), thymidine ([…]), penicillin G (100 U mL^−1) and streptomycin (100 μmL^−1). […] Acetylcholine, an eNOS agonist, was used in all experiments as the positive control at concentrations of 10^−7 and 10^−6 M.
Nitric Oxide Measurements. Methemoglobin—The effect of DOX on NO production in EC was determined using a photometric assay for conversion of oxyhemoglobin to methemoglobin. […] Perfusate is then directed into a flow-through cuvette in a dual wavelength spectrophotometer and change in absorbency (415/405 nm) is measured. Experimental stimulation was carried out by 3 min infusion periods of DOX added to buffer perfusion to yield final concentrations of 10^−7 and 10^−6 M. For analysis, we determined the area under the curve for the change in absorbency response/min caused by DOX assuming a one to one correspondence for NO and metHb production, the known stoichiometric balance for this reaction. NO production was measured with a NO meter connected to a polargraphic NO electrode as previously described. The NO sensor probe will be inserted vertically into 24-well plates containing confluent EC such that the tip of the electrode is submerged 2 mm under the surface of medium (above −1 ml). The reaction was initiated when desired concentrations of DOX are added to the well. Calibrations were performed with S-nitroso-acetyl-penicillamine.

[4] = tested on: bovine aortic endothelial cells (BAEC); experiment: NO production by endothelial cells on beads, photometric oxyhemoglobin to methemoglobin assay; type: cell-based
Description: NO oxidize; oxyhemoglobin (HbO2) to methemoglobin (metHb) in the following reaction HbO2+NO−metHb+NO3. The amount of NO produced by endothelial cells was quantified by measuring the change in absorbance as HbO2 oxidizes to metHb. Oxyhemoglobin has a absorbance peak at 415 nm, while methb has a 406 nm absorbance peak. By subtracting the absorbance of metHb from HbO2, the concentration of NO can be assessed. The general method was patterned after that of Feelisch et al., (Biochem. and Biophy. Res. Comm. 1991; 180, Nc I:286-293).
The effects of pravastatin on activity of endothelial cells in producing NO were compared with those of actetylcholine, which is known to specifically stimulate NO production by NOS activity.

## CC(=O)N[C@@H](C(=O)O)C(C)(C)SN=O (racemic) [SNAP, s-nitroso-acetyl-penicillamin]
[1]; 200 μM SNAP (0.4 μM NO), ten minutes of exposure
  increase of activity of the y+ transporter: 37%
[1]; 200 μM SNAP, 30 minute exposure
  elevation of activity of the y+ transporter: not seen
[1]; 200 μM SNAP, 1 hour
  reduction of uptake of [3H]-LA: 22%
[1]; 200 μM SNAP, 2 hour exposure
  reduction of uptake of [3H]-LA: 46%
[1]; 200 μM SNAP, 3 hour exposure
  reduction of uptake of [3H]-LA: 45%
[1]; 200 μM SNAP, 5 hour exposure
  reduction of uptake of [3H]-LA: 36%

## CNc1ccc2oc(C[C@H]3O[C@@]4(CC[C@H]3C)O[C@H]([C@H](C)C(=O)c3ccc[nH]3)[C@H](C)C[C@H]4C)nc2c1C(=O)O [A-23187]
[2]
  increase of O2*— production above basal levels: 2.5 fold

## COc1cc2nc(N3CCN(C(=O)C4COc5ccccc5O4)CC3)nc(N)c2cc1OC (centres unmarked) [DOX, Doxazosin]
[3]; DOX 10^−7-10^−5 M, dose-related
  increase in NO production: 64-145%

## NCCCN(CCCN)/[N+]([O-])=N/O [DPTA-NONOate, dipropylenetriamine NONOate]
[1]; 0.01 μM, 2 hour exposure
  maximum inhibition of y+ transport: 20%
[1]; 1 μM DPTA-NONOate (2 μM NO), 15 and 30 min
  effect on y+ system: no significant effect
[1]; 1 μM DPTA-NONOate (2 μM NO), 1 hour exposure
  inhibition of L-arginine transport: 22%
[1]; 1 μM DPTA-NONOate (2 μM NO), 2 hour exposure
  inhibition of L-arginine transport: 24%
[1]; 1 μM DPTA-NONOate (2 μM NO), 4 hour exposure
  inhibition of L-arginine transport: 29%
[1]; 1 μM, 2 hour exposure
  maximum inhibition of y+ transport: 24%
[1]; 10 μM, 2 hour exposure
  maximum inhibition of y+ transport: 44%

## COC(=O)[C@@H](N)CCCNC(=N)N[N+](=O)[O-] [L-NAME, n-ω-nitro-L-arginine methyl ester]
[4]; buffer containing L-NAME 10^−3 M
  reduction of acetylcholine-induced production of NO: 80%
[4]; superfusion with L-NAME 10^−3 M
  NO production in response to pravastatin: blunted
[3]; ACH 10^−6 M, prior L-NAME
  block of increase in NO to ACH: 86%
[3]; DOX 10^−6 M, prior L-NAME 5×10^−4 M
  block of increase in NO to DOX: 72%
[2]
  inhibition of O2*— production induced by A-23187: 58%
  reduction of O2*— induced by SP: 81%
  prevention of basal production of O2*—: 100%

## N=C(N)NCCC[C@H](N)C(=O)O [L-arginine]
[4]; L-NAME buffer replaced with buffer containing L-arginine 10^−3 M
  acetylcholine-elicited production of NO: returned to control levels
[4]; subsequent perfusion with buffer containing L-arginine 10^−3 M
  NO production in response to pravastatin: return in NO production to a level above the amount induced by the Pravastatin in control (basis) buffer
[3]; supplemental L-arginine
  accentuation of NO responses to ACH: 72%
[3]; supplemental L-arginine 5×10^−4 M
  accentuation of NO responses to DOX: 65%
[2]
  inhibition of O2*— production induced by A-23187: 60%
  reduction of O2*— induced by SP: 51%
  prevention of basal production of O2*—: not

## CC(=O)OCC[N+](C)(C)C [acetylcholine]
[1]; 2 minute exposure
  increase of [3H]-LA uptake: 22%
[1]; 15 minute (maximum)
  increase of [3H]-LA uptake: 27%
[1]; 30 minutes
  increase of [3H]-LA uptake: 16%
[1]; 60 minutes
  increase of [3H]-LA uptake: 15.5%

## CC[C@H](C)C(=O)O[C@H]1C[C@H](O)C=C2C=C[C@H](C)[C@H](CC[C@@H](O)C[C@@H](O)CC(=O)O)[C@H]21 [pravastatin]
[4]; pravastatin 10^−5 M, larger than that of acetylcholine
  increment in NO response to the 10^−5 M concentration: ~3 X

## substance P [SP]
[1]; 15-minutes exposure
  increase of y+ transport of L-arginine: 24%
[1]; 30 minutes
  increase of y+ transport of L-arginine: 24%
[1]; 60 minutes
  increase of y+ transport of L-arginine: 21%
[1]; 2 hour exposure
  increase of y+ transporter activity from control: 34%
[1]; 3 hour exposure
  increase of y+ transporter activity from control: 27%
[1]; 5 hour exposure
  increase of y+ transporter activity from control: 21%
[2]
  increase of O2*— production above basal levels: 3.5 fold
